According to patent US6524625B2, “Physiologically active extract obtained from indigo plant polygonum tinctorium” (Kabushiki Kaisha Hayashibara Seibutsu Kagaku Kenkyuto, priority 1998, dated 2003):
In brackets after ≈: the same amount, converted by molar mass.

Tests used:
[1] = tested on: Bacillus cereus (IFO 3466); test: Antiseptic action: MIC, agar plate dilution method; type: cell-based; conditions: Bacillus cereus, IFO3466, read-out: Minimum inhibitory concentration
[2] = tested on: Pseudomonas aeruginosa (IFO 3453); test: Antiseptic action: MIC, agar plate dilution method; type: cell-based; conditions: Pseudomonas aeruginosa, IFO3453, read-out: Minimum inhibitory concentration
[3] = tested on: Staphylococcus aureus (ATCC 6538P); test: Antiseptic action: MIC, agar plate dilution method; type: cell-based; conditions: Staphylococcus aureus, ATCC6538P, read-out: Minimum inhibitory concentration
HGC-27 cells = test: Apoptosis controlling action, propidium iodide flow cytometry; type: cell-based, human; conditions: HGC-27 cells (1 × 10^5 cells/ml)
Experimental: (§1) The solution was distributed to a microplate in one milliliter per well, and the solution in each well was diluted in series with a fresh preparation of the same medium as used in the above.
(§2) HL-60 cells, ATCC CCL-240, derived from a patient with acute promyelocytic leukemia; U-937 cells, ATCC CRL-1593.2, derived from a patient with human histiocytic lymphoma; HGC-27 cells, RCB0500, derived from a patient with gastric cancer; HLC-1 cells, RCB0083, derived from a patient with lung adenocarcinoma; and C6 cells, ATCC CCL-107, derived from rat glial tumor, were respectively suspended in RPMI1640 medium (pH 7.2) to give a cell density of 1×10^6 cells/ml or 2×10^5 cells/ml. To the microplate, containing a one milliliter dilution of 20, 10 or 5.0 μg/ml of Compound 1, was added one milliliter per well of either of the above cell suspensions and used for test systems. All the test systems were made duplex and respectively subjected to 24- and 48-hour incubations in a 5 v/v % CO2 incubator at 37° C. A system free of Compound 1 was provided and treated similarly as above and used for control.
(§3) According to the method by I. Nicoletti et al. in Journal of Immunological Methods, Vol. 139, pp. 271-279 (1991), the apoptosis-induced cells in the test systems and control were stained by propidium iodide and determined for the percentage of the stained cells to the total cells in such a manner that transferring each of the cultures to polypropylene tubes, centrifuging the tubes, removing the resulting supernatants, washing the cells' sediments with phosphate buffered saline containing 0.3 v/v % calf serum albumin, and further centrifuging the washed cells to remove supernatants. The newly formed sediments were respectively mixed with 50 μg/ml of propidium iodide commercialized by Sigma Chemical Company, St. Louis, Mo., USA, 0.1 w/v % sodium citrate, and0.1 w/v % “TRITON X-100”, a surfactant commercialized by Sigma Chemical Company, St. Louis, Mo., USA, in respective volumes of 1.5 ml to stain the cells by propidium iodide. The stained cells were stored at 4° C. in the dark overnight. The stained cells of each test system were analyzed on “EPICS PROFILE II”, a flow cytometry commercialized by Beckman Coulter, Inc., CA, USA. Based on the data the percentage of the stained cells to the total cells in each test system was measured for apoptosis occurrence.

HL-60 cells = test: as above; type: cell-based, human; conditions: HL-60 cells (5 × 10^5 cells/ml)
Experimental: as §1, §2, §3

HLC-1 cells = test: as above; type: cell-based, human; conditions: HLC-1 cells (1 × 10^5 cells/ml)
Experimental: as §1, §2, §3

U-937 cells = test: as above; type: cell-based, human; conditions: U-937 cells (5 × 10^5 cells/ml)
Experimental: as §1, §2, §3

[4] = 48 hours, 2.5 μg/ml, control 1.5
[5] = 48 hours, 5.0 μg/ml, control 1.5
[6] = 48 hours, 10 μg/ml, control 1.5

O=C1c2ccccc2-n2c1nc1ccccc1c2=O [Compound 1, 6,12-dihydro-6,12-dioxoindolo[2,1-b]quinazoline]
MIC [1]: 39 µg/mL (≈ 157 µM) | MIC [2]: 39 µg/mL (≈ 157 µM) | MIC [3]: 39 µg/mL (≈ 157 µM) | Apoptosis occurrence (HGC-27 cells; 24 hours, 2.5 μg/ml, control 1.5): 1.9% | Apoptosis occurrence (HGC-27 cells; 24 hours, 5.0 μg/ml, control 1.5): 1.7% | Apoptosis occurrence (HGC-27 cells; 24 hours, 10 μg/ml, control 1.5): 3.5% | Apoptosis occurrence (HGC-27 cells; 48 hours, 2.5 μg/ml, control 1.4): 2.2% | Apoptosis occurrence (HGC-27 cells; 48 hours, 5.0 μg/ml, control 1.4): 4.1% | Apoptosis occurrence (HGC-27 cells; 48 hours, 10 μg/ml, control 1.4): 14.1% | Apoptosis occurrence (HL-60 cells; 24 hours, 2.5 μg/ml, control 0.7): 0.7% | Apoptosis occurrence (HL-60 cells; 24 hours, 5.0 μg/ml, control 0.7): 1.7% | Apoptosis occurrence (HL-60 cells; 24 hours, 10 μg/ml, control 0.7): 11.8% | Apoptosis occurrence (HL-60 cells; [4]): 1.3% | Apoptosis occurrence (HL-60 cells; [5]): 4.2% | Apoptosis occurrence (HL-60 cells; [6]): 22.6% | Apoptosis occurrence (HLC-1 cells; 24 hours, 2.5 μg/ml, control 2.7): 3.7% | Apoptosis occurrence (HLC-1 cells; 24 hours, 5.0 μg/ml, control 2.7): 4.2% | Apoptosis occurrence (HLC-1 cells; 24 hours, 10 μg/ml, control 2.7): 8.1% | Apoptosis occurrence (HLC-1 cells; [4]): 5.8% | Apoptosis occurrence (HLC-1 cells; [5]): 7.3% | Apoptosis occurrence (HLC-1 cells; [6]): 21.8% | Apoptosis occurrence (U-937 cells; 24 hours, 2.5 μg/ml, control 3.2): 3.2% | Apoptosis occurrence (U-937 cells; 24 hours, 5.0 μg/ml, control 3.2): 5.0% | Apoptosis occurrence (U-937 cells; 24 hours, 10 μg/ml, control 3.2): 6.8% | Apoptosis occurrence (U-937 cells; 48 hours, 2.5 μg/ml, control 4.5): 5.2% | Apoptosis occurrence (U-937 cells; 48 hours, 5.0 μg/ml, control 4.5): 11.7% | Apoptosis occurrence (U-937 cells; 48 hours, 10 μg/ml, control 4.5): 66.9%
